Assay: Compound was tested for inhibitory activity against fucosyltransferase

Structure (SMILES): OC[C@@H]1NC[C@@H](O)[C@@H](O)[C@@H]1O[C@@H]1O[C@@H](CO)[C@H](O)[C@H](O)[C@@H]1O
- IC50: 40 mM
